# Patent publication US20090143440A1, “Pyrazoles Useful in the Treatment of Inflammation” (BIOLIPOX AB, priority 2005, published 2009)
# Biological target: T1, purified human 15-lipoxygenase (Homo sapiens, UniProt P16050)
# T1 sequence (P16050 1-662): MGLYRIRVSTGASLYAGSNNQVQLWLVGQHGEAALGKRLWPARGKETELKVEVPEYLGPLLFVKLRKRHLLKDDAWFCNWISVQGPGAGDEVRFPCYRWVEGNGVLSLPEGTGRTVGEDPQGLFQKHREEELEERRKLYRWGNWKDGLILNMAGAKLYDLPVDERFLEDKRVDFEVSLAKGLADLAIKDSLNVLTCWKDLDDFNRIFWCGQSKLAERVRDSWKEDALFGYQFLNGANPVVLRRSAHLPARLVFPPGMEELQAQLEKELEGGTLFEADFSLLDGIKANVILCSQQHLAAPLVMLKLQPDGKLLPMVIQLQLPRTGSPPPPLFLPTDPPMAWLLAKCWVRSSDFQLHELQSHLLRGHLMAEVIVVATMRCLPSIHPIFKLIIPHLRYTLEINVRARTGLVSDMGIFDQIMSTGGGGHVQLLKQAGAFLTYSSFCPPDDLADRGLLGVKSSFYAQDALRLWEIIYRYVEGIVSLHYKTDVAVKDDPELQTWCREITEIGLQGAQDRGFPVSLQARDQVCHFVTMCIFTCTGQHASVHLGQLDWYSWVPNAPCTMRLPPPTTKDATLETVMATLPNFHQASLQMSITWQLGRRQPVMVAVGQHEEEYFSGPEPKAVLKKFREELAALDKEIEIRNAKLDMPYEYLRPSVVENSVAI
# Test: 15-lipoxygenase inhibition assay (arachidonic acid oxidation, HPLC readout)
# Format: biochemical
# Details: arachidonic acid substrate, room temperature, PBS pH 7.4
# Description: The assay employed takes advantage of the ability of lipoxygenases to oxidize polyunsaturated fatty acids, containing a 1,4-cis-pentadiene configuration, to their corresponding hydroperoxy or hydroxyl derivatives. In this particular assay, the lipoxygenase was a purified human 15-lipoxygenase and the fatty acid was arachidonic acid. The assay is performed at room temperature (20-22° C.) and the following are added to each well in a 96-well microtiter plate:
# a) 35 μL phosphate buffered saline (PBS) (pH 7.4); b) inhibitor (i.e. compound) or vehicle (0.5 μl DMSO); c) 10 μL of a 10× concentrated solution of 15-lipoxygenase in PBS. […] The plate is then incubated for 10 minutes at room temperature; e) the enzymatic reaction is terminated by the addition of 100 μl methanol; and f) the amount of 15-hydroperoxy-eicosatetraenoic acid or 15-hydroxy-eicosatetraenoic acid is measured by reverse phase HPLC.
row,SMILES,IC50
1,"Cc1nc(NC(=O)c2cc(Cl)[nH]n2)ccc1Br [Example 6, N-(5-bromo-6-methylpyridin-2-yl)-5-chloropyrazole-3-carboxamide]",0.32 µM
2,"O=C(Nc1ccc(F)cn1)c1cc(C(F)F)[nH]n1 [Example 13, 5-(Difluoromethyl)-N-(5-fluoropyridin-2-yl)pyrazole-3-carboxamide]",0.393 µM
3,Cc1ccnc(NC(=O)c2cc[nH]n2)c1 [Example 44],0.346 µM

# Molecules with a lower IC50, results first:
row,IC50,SMILES
1,0.3 µM,"O=C(Nc1ccc(C(F)(F)F)cn1)c1cc(Cl)[nH]n1 [Example 5, 5-Chloro-N-(5-(trifluoromethyl)pyridin-2-yl)pyrazole-3-carboxamide]"
2,0.31 µM,"O=C(Nc1ccc(F)cn1)c1n[nH]c(C(F)(F)F)c1Cl [Example 11, 4-Chloro-N-(5-fluoropyridin-2-yl)-5-(trifluoromethyl)pyrazole-3-carboxamide]"
3,0.248 µM,"O=C(Nc1ccc([N+](=O)[O-])cn1)c1cc(Cl)[nH]n1 [Example 14, 5-Chloro-N-(5-nitropyridin-2-yl)pyrazole-3-carboxamide]"
4,0.122 µM,"COc1ccc(NC(=O)c2cc(Cl)[nH]n2)nc1 [Example 29, 5-Chloro-N-(5-methoxypyridin-2-yl)pyrazole-3-carboxamide]"
